# Measurements reported in ChEMBL document CHEMBL1122099, “Antiallergics: 3-(1H-tetrazol-5-yl)-4H-pyrimido[2,1-b]benzothiazol-4-ones” (1982).
# Key:
# Rattus norvegicus [1] = experiment: Tested for the antiallergic activity in rat passive cutaneous anaphylaxis (PCA) test; po; format: functional
# Rattus norvegicus [2] = experiment: Percent inhibition at a concentration of 25 mg/kg in rat passive cutaneous anaphylaxis (PCA) test; format: functional
# Rattus norvegicus [3] = experiment: Percent inhibition at a concentration of 0.02 mg/kg in methacholine induced bronchospasm in rat intraduodenally; format: functional; details: route intraduodenal
# Rattus norvegicus [4] = experiment: Percent inhibition at a concentration of 0.1 mg/kg in methacholine induced bronchospasm in rat; format: functional
# Rattus norvegicus [5] = experiment: Percent inhibition at a concentration of 1.0 mg/kg in methacholine induced bronchospasm in rat; format: functional
# Rattus norvegicus [6] = experiment: Percent inhibition at a concentration of 10.0 mg/kg in methacholine induced bronchospasm in rat; format: functional
# Rattus norvegicus [7] = species: Rattus norvegicus; experiment: Tested for the bronchodilator activity by measuring inhibition of allergen induced bronchospasm in rat intra duodenally
structure (smiles),measurement,setting,value
N=c1c(-c2nnn[nH]2)cnc2sc3ccccc3n12,ED50,Rattus norvegicus [1],8.1 mg/kg
Cc1cc(C)c2sc3ncc(-c4nnn[nH]4)c(=O)n3c2c1,ED50,Rattus norvegicus [1],1.96 mg/kg
Cc1cc2sc3ncc(-c4nnn[nH]4)c(=O)n3c2cc1C,inhibition in vivo at 25 mg/kg,Rattus norvegicus [2],35%
O=c1c(-c2nnn[n-]2)cnc2sc3ccccc3n12.[K+],ED50,Rattus norvegicus [1],0.08 mg/kg
same,inhibition in vivo at 0.02 mg/kg,Rattus norvegicus [3],13.2%
same,inhibition in vivo at 0.1 mg/kg,Rattus norvegicus [4],37.4%
same,inhibition in vivo at 1 mg/kg,Rattus norvegicus [5],59.3%
same,inhibition in vivo at 10 mg/kg,Rattus norvegicus [6],61%
same,ED50,Rattus norvegicus [7],0.38 mg/kg
COc1ccc2c(c1)sc1ncc(-c3nnn[nH]3)c(=O)n12,ED50,Rattus norvegicus [1],1.9 mg/kg
O=C([O-])c1cc(=O)c2c(OCC(O)COc3cccc4oc(C(=O)[O-])cc(=O)c34)cccc2o1.[Na+].[Na+] [CROMOLYN SODIUM],ED50,Rattus norvegicus [1],0.3 mg/kg
